ChEMBL document CHEMBL3046932, “Synthesis, 5-HT1A and 5-HT2A receptor affinity and QSAR study of 1-benzhydryl-piperazine derivatives with xanthine moiety at N4” (Med Chem Res, 2012)
pKi: −log10 of the molar value.

Key:
[1] = target: T1, 5-hydroxytryptamine receptor 2A (Homo sapiens, UniProt P28223); test: Binding affinity to 5-HT2A (unknown origin)
[2] = target: T2, 5-hydroxytryptamine receptor 1A (Homo sapiens, UniProt P08908); test: Binding affinity to 5-HT1A (unknown origin)
T2 sequence (P08908 whole entry): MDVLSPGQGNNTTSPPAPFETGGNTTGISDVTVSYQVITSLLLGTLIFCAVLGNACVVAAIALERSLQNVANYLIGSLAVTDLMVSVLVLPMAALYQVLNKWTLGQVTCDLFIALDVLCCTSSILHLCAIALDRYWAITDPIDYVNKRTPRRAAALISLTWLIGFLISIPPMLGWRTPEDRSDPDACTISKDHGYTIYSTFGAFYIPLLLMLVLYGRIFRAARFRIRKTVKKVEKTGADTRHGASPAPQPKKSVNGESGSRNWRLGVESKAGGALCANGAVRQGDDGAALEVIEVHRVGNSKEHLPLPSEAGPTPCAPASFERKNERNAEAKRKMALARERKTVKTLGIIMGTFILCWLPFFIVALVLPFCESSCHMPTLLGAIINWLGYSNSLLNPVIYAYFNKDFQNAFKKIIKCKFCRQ

[3] = target: 5-hydroxytryptamine receptor 2A (Rattus norvegicus, UniProt P14842); test: Displacement of [3H]Ketanserin from 5-HT2A receptor in rat cortex
[4] = target: T3, 5-hydroxytryptamine receptor 1A (Rattus norvegicus, UniProt P19327); test: Displacement of [3H]8-OH-DPAT from 5-HT1A receptor in Rattus norvegicus (rat) hippocampus; conditions: for Ki: read-out: pKi (converted); for pKi: read-out: Ki
T3 sequence (P19327 whole entry): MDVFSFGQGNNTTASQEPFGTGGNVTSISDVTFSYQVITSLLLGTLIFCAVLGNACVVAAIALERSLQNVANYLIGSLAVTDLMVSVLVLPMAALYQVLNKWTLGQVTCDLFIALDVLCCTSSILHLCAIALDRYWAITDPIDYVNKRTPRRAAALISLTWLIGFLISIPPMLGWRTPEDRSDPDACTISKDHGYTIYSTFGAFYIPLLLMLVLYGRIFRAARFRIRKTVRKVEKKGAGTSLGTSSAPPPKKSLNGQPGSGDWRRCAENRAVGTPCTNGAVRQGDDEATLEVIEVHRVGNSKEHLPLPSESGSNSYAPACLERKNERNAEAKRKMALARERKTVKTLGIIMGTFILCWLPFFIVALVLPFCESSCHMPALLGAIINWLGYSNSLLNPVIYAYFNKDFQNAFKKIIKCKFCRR

[5] = target: T1, 5-hydroxytryptamine receptor 2A; test: Displacement of [3H]Ketanserin from 5-HT2A receptor (unknown origin)
[6] = Selectivity index, ratio of Ki for rat 5-HT1A to Ki for 5-HT2A (unknown origin)

T1 sequence (P28223 whole entry): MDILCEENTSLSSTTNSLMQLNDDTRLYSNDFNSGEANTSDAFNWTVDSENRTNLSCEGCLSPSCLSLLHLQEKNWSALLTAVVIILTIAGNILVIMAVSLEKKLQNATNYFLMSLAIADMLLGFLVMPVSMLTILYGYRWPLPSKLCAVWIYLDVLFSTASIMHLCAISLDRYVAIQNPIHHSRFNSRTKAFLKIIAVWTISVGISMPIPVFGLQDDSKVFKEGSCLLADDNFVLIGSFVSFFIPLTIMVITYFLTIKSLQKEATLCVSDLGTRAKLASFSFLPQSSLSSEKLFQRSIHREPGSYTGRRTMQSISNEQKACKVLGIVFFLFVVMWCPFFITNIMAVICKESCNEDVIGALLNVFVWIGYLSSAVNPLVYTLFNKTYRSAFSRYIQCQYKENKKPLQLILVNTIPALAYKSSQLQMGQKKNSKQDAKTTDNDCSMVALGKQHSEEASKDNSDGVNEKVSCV
Chain of 5-hydroxytryptamine receptor 2A (Rattus norvegicus, UniProt P14842) (P14842 whole entry): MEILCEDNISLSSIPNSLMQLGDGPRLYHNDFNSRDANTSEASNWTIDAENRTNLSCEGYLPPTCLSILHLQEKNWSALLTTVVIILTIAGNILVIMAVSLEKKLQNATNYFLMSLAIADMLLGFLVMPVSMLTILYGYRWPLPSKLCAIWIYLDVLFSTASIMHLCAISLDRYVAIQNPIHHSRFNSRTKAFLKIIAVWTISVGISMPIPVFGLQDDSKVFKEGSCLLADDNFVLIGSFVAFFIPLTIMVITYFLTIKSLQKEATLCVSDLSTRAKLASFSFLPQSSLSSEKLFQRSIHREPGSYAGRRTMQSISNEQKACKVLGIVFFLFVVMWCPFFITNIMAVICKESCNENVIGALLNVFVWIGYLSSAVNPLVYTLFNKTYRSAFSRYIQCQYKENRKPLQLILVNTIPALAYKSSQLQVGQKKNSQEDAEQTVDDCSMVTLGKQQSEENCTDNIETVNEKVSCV

Row | SMILES | pKi [1] | pKi [2] | pKi [3] | Ki [4] [nM] | also measured
1 | COc1ccccc1N1CCN(CCCn2c(=O)ccn3c4c(=O)n(C)c(=O)n(C)c4nc23)CC1 | 5.41 | 7.98 | – | – | –
2 | Cn1c(=O)c2c(nc3n(CCCN4CCN(c5cccc(Cl)c5)CC4)c(=O)ccn23)n(C)c1=O | 5.97 | 7.48 | – | – | –
3 | COc1ccccc1N1CCN(CCCNc2nc3c(c(=O)n(C)c(=O)n3C)n2CCCc2ccccc2)CC1 | – | – | 6.52 | 8 | –
4 | Cn1c(=O)c2c(nc(N3CCN(C(c4ccccc4)c4ccccc4)CC3)n2C)n(C)c1=O | – | – | – | – | pKi [5]: 4.65; pKi [4]: 4.97; Ratio Ki [6]: 0.5
5 | CCOC(=O)Cn1c(NCCCN2CCN(c3ccccc3)CC2)nc2c1c(=O)n(C)c(=O)n2C | 6.00 | 6.23 | 6.35 | 220 | –
6 | Cn1c(=O)c2c(nc3n2CCCCN3CCCN2CCN(c3ccccc3)CC2)n(C)c1=O | 6.59 | 7.51 | – | – | –
7 | Cn1c(=O)c2c(nc(NCCCN3CCN(C(c4ccccc4)c4ccccc4)CC3)n2C)n(C)c1=O | – | – | – | – | pKi [5]: 6.51; pKi [4]: 5.80; Ratio Ki [6]: 5.1
8 | Cn1c(=O)c2c(nc3n(CCCN4CCN(c5ccccc5)CC4)c(=O)ccn23)n(C)c1=O | 5.33 | 7.60 | – | – | –
9 | COc1ccccc1N1CCN(CCCN2CCCn3c2nc2c3c(=O)n(C)c(=O)n2C)CC1 | 6.31 | 8.55 | – | – | –
10 | Cn1c(=O)c2c(nc3n2CCCN3CCCCN2CCN(c3ccccc3)CC2)n(C)c1=O | 6.61 | 8.68 | – | – | –
11 | Cn1c(=O)c2c(nc3n(CCCCN4CCN(c5ccccc5)CC4)c(=O)ccn23)n(C)c1=O | – | – | 5.70 | 21.5 | –
12 | COc1ccccc1N1CCN(CCCN2C(=O)CCn3c2nc2c3c(=O)n(C)c(=O)n2C)CC1 | 5.38 | 7.67 | – | – | –
13 | Cn1c(=O)c2c(nc3n2CCCC(=O)N3CCCN2CCN(c3ncccn3)CC2)n(C)c1=O | 4.41 | 6.32 | – | – | –
14 | Cn1c(=O)c2c(nc(NCCCN3CCN(c4ccccc4)CC3)n2CCCc2ccccc2)n(C)c1=O | – | – | 6.35 | 50 | –
15 | Cn1c(=O)c2c(nc3n2CCCN3CCCN2CCN(c3ncccn3)CC2)n(C)c1=O | 5.09 | 7.44 | – | – | –
16 | COc1ccccc1N1CCN(CCCN2CCCCn3c2nc2c3c(=O)n(C)c(=O)n2C)CC1 | 6.25 | 7.76 | – | – | –

Row | SMILES | pKi [1] | pKi [2] | pKi [3] | Ki [4] [nM] | also measured
17 | Cn1c(=O)c2c(nc3n2CCCN3CCCN2CCN(c3cccc(Cl)c3)CC2)n(C)c1=O | 6.90 | 7.59 | – | – | –
18 | CCCCn1c(NCCCN2CCN(c3ccccc3)CC2)nc2c1c(=O)n(C)c(=O)n2C | 6.21 | 7.00 | – | – | –
19 | Cn1c(=O)c2c(nc3n2CCC(=O)N3CCCN2CCN(c3ncccn3)CC2)n(C)c1=O | 4.55 | 7.38 | – | – | –
20 | CC(c1ccccc1)n1c(NCCCN2CCN(c3ccccc3)CC2)nc2c1c(=O)n(C)c(=O)n2C (centres undefined) | – | – | 6.94 | 1010 | –
21 | Cn1c(=O)c2c(nc3n2CCCC(=O)N3CCCN2CCN(c3cccc(Cl)c3)CC2)n(C)c1=O | 6.45 | 7.22 | – | – | –
22 | COc1ccccc1N1CCN(CCCCn2c(=O)ccn3c4c(=O)n(C)c(=O)n(C)c4nc23)CC1 | – | – | 5.97 | 0.5 | –
23 | Cn1c(=O)c2c(nc3n2CCCN3CCCN2CCN(c3ccccc3)CC2)n(C)c1=O | 6.38 | 7.80 | – | – | –
24 | Cn1c(=O)c2c(nc(NCCCN3CCN(c4cccc(Cl)c4)CC3)n2CCCc2ccccc2)n(C)c1=O | – | – | 6.46 | 10 | –
25 | Cn1c(=O)c2c(nc(NCCCN3CCN(c4ccccc4)CC3)n2C)n(C)c1=O | 6.71 | 6.42 | – | – | –
26 | COc1ccccc1N1CCN(CCCN2C(=O)CCCn3c2nc2c3c(=O)n(C)c(=O)n2C)CC1 | 5.30 | 6.78 | – | – | –
27 | COc1ccccc1N1CCN(CCCNc2nc3c(c(=O)n(C)c(=O)n3C)n2Cc2ccccc2)CC1 | – | – | 6.26 | 48 | –
28 | Cn1c(=O)c2c(nc(NCCCN3CCN(c4cccc(Cl)c4)CC3)n2CCc2ccccc2)n(C)c1=O | – | – | 6.92 | 210 | –
29 | Cn1c(=O)c2c(nc3n2CCCCN3CCCN2CCN(c3cccc(Cl)c3)CC2)n(C)c1=O | 6.48 | 7.57 | – | – | –
30 | Cn1c(=O)c2c(nc3n2CCC(=O)N3CCCN2CCN(c3cccc(Cl)c3)CC2)n(C)c1=O | 6.74 | 7.37 | – | – | –
31 | Cn1cnc2c1c(=O)n(CCCN1CCN(C(c3ccccc3)c3ccccc3)CC1)c(=O)n2C | – | – | – | – | pKi [5]: 7.23; pKi [4]: 5.70; Ratio Ki [6]: 33.9
32 | Cn1c(=O)c2c(nc3n(CCCCN4CCN(c5cccc(Cl)c5)CC4)c(=O)ccn23)n(C)c1=O | – | – | 6.82 | 8.79 | –
